65 compounds from a melting point compilation (Tetko et al.; mined from patent text by program, amines drawn as free bases though some values may be those of a salt) can be followed below.

As a reminder, the melting point is the temperature of the solid-liquid transition. With `O=C(/C=C/c1ccc(O)cc1)C(F)(F)F`, the melting point lay within 106 to 107 °C.

In the case of `Cc1ccc(S(=O)(=O)N(OC(C)C)c2ccc([N+](=O)[O-])cc2Cl)cc1`, the melting point lay within 160 to 162 °C.

In turn, `COC(=O)COc1coc2ccccc2c1=O` returned a melting point of 114 to 116 °C.

Compound `CCOP(=O)(/C=C/c1cn(-c2ccccc2)nc1OCc1ccc(OCc2nc(/C=C/C(=O)O)oc2C)c(OC)c1)OCC` came in with a melting point of 89 to 90 °C.

Regarding `Nc1cc(=O)n(Cc2cccc(Br)c2)[nH]1`, the melting point was determined as 160 °C.

On to `CSC1CCC2C3CCC4=CC(=O)C=CC4(C)C3C(=O)CC12C` (stereo not given), for which the melting point fell in the range of 180 to 183 °C.

Take `Fc1c(F)c(C(F)(F)F)c(F)c(F)c1Nc1ccc(-c2ccc(Nc3c(F)c(F)c(C(F)(F)F)c(F)c3F)cc2)cc1`: the melting point lay within 179 to 180 °C.

Turning to `NS(=O)(=O)NC(c1ccccc1)P(=O)(Oc1ccccc1)Oc1ccccc1` (stereo not given), the melting point fell in the range of 171 to 174 °C.

For `COCC1CCCN1S(=O)(=O)c1ccc2c(c1)C1(OCCCO1)C(=O)N2CCC#N` (stereo not given), the melting point fell in the range of 138 to 141 °C.

The compound `CC[C@H](C)[C@H](NC(=O)NC(C)C)C(=O)N[C@H](CO)Cc1c[nH]c2ccccc12` yielded a melting point of 211 to 213 °C.

Turning to `Cc1cc(CCCCCOc2ccc(C3=NCCO3)cc2C(F)F)on1`, the melting point lay within 80 to 89 °C.

Turning to `Cc1c(C)c(C)c2c(c1C)CCCC2`, the melting point was in the range of 81.5 to 82 °C.

Turning to `CS(=O)(=O)c1cc(C(=O)O)cc(NCc2ccccc2)c1Cl`, the melting point lay within 254 to 256 °C.

Turning to `CCCCC1(CC)CSC2=CC=CC3=CNCC32C(c2ccccc2)=N1` (stereo not given), the melting point lay in the range of 145 to 146 °C.

Consider `Cc1ncnn1-c1cc(F)ccc1CNC(=O)c1nc2n(c(=O)c1OCc1ccccc1)CCN2c1ccccc1`, for which the melting point was 181 °C.

`CN1CCC(OC2c3ccccc3CCn3c2nc(-c2ccccc2)c3C(N)=O)CC1` (stereo not given) yielded a melting point of 102 °C.

In turn, `Oc1ccc(-c2c3ccccc3cc3sc4ccccc4c23)cc1O` returned a melting point of 188 to 189 °C.

In turn, `CNC1=NN(C(=O)c2cccc(C(F)(F)F)c2)C(C)(C)S1` displayed a melting point of 111 to 115 °C.

`Cc1ccsc1CN(O)C(N)=O` yielded a melting point of 110 °C.

Regarding `CCOC1CC2(C)C(CCC3C4CCC(C(=O)CBr)C4(C)CC(=O)C32)CC1O` (stereo not given), the melting point is 74 to 78 °C.

Consider `CC(=NO)c1ccc(C2=CCCCC2)cc1`, for which the melting point fell in the range of 154 to 156 °C.

Compound `COC(=O)Oc1ccc(C(=O)CBr)c(OC(=O)OC)c1` displayed a melting point of 73 to 74 °C.

Take `S=C(Nc1cnccc1NC1CCCCC1)NC1CCCCC1`: the melting point fell in the range of 157 to 159 °C.

`CCN(Cc1ccc(F)nc1)C(=S)NC` yielded a melting point of 123 to 124 °C.

Compound `CCCC(CCC)C(=O)OC1N=C(c2ccccc2Cl)c2cc(Cl)ccc2NC1=O` (stereo not given) registered a melting point of 191 to 193 °C.

`CCOC(=O)c1ccc(-c2csc(-c3ccc(Cl)cc3)n2)s1` showed a melting point of 234 to 236 °C.

On to `COc1cc2ccccc2cc1C(=O)NNC(=O)c1ccc2ccccc2c1`, for which the melting point was 194 to 196 °C.

The compound `CSc1nc(NN2CCCCC2)c2ncn(C3OC(CCl)C(O)C3O)c2n1` (stereo not given) returned a melting point of 213 to 215 °C.

In the case of `COC(=O)[C@H](Cc1c[nH]cn1)NC(=O)[C@H](Cc1ccccc1)NC(=O)[C@H](Cc1ccccc1)NC(=O)C(C)(C)C`, the melting point fell in the range of 128 to 131 °C.

`O=P(O)(O)C(O)(Cc1ccc2ccccc2c1)P(=O)(O)O` had a melting point of 257 °C.

`CC(C)(C)OC(=O)NCCOc1noc2ccccc12` yielded a melting point of 106 to 107 °C.

`Cc1c(Br)cccc1N1Cc2ccc(C(C)(C)C)cc2C1=O`: the melting point was 120 to 122 °C.

Take `CC(C)Oc1ccccc1CN1CCC(=O)C(C(c2ccc(F)cc2)c2ccc(F)cc2)C1` (stereo not given): the melting point lay in the range of 155 to 156 °C.

The compound `COc1cccc(OC)c1C(=O)NC(=O)Nc1ccc(Sc2ccc(Cl)cc2)nc1` showed a melting point of 172 to 174 °C.

Turning to `Cc1cc(=O)n(-c2cccc(Cl)c2)c2[nH]n(-c3ccccc3)c(=O)c12`, the melting point was in the range of 278 to 282 °C.

The compound `CCC(C)(C)OOC(C)(CCC(=O)NNC(=O)C(C#N)=C(c1ccccc1)c1ccccc1)OOC(C)(C)CC` came in with a melting point of 145 to 148 °C.

Compound `CC(CO)Oc1cc(Oc2ccc(S(C)(=O)=O)cc2)cc2cc(C3=NCC(CC(N)=O)S3)[nH]c12` (stereo not given) showed a melting point of 137 to 142 °C.

`COC(=O)C1CNC(CCc2ccccc2)=N1` (racemic) had a melting point of 136 to 141 °C.

In the case of `CC(=O)c1cc(S(N)(=O)=O)ccc1F`, the melting point was in the range of 172 to 173 °C.

With `O=C1CC(CO)C(c2ccc(N3CCOCC3)c(Cl)c2)=NN1` (stereo not given), the melting point was 173 to 175 °C.

On to `Cn1cnc2nc(Oc3ccccc3)nn2c1=S`, for which the melting point lay in the range of 209 to 211 °C.

Compound `OCC12CCCN(CC1)C2` (stereo not given) yielded a melting point of 44 to 47 °C.

The compound `COc1cc(CCNC(=O)[C@@H](NC(=O)OC(C)(C)C)C(C)C)ccc1OCc1ccccc1` registered a melting point of 115 to 118 °C.

Compound `CCCCCCCCCCS(=O)(=O)CCCOCCn1c(CCC)nc2c(N)nc3ccccc3c21` yielded a melting point of 84 to 86 °C.

Consider `COC(=O)N1C(C(=O)O)CSC1c1ccccc1` (stereo not given), for which the melting point was 129 to 130 °C.

On to `Cc1cccc(-n2nc(C)c3c(=O)c4ccccc4[nH]c32)n1`, for which the melting point turned out to be 252 °C.

The compound `CC(C)CC(C)(C#N)N=NC(C)(C#N)CC(C)C` (stereo not given) gave a melting point of 52 to 56 °C.

As for `O=C(O)COc1ccc2cc(-c3csc(-c4ccccc4)n3)ccc2c1Br`, the melting point was 222 to 230 °C.

`COc1ccc(Oc2cc(Cl)ccc2[N+](=O)[O-])c(C(=O)O)c1` showed a melting point of 232 to 234 °C.

`O=C(OCc1ccccc1)C(CO)N(C(=O)Cc1ccccc1)C(=O)OCc1ccccc1` (stereo not given) showed a melting point of 59 to 60 °C.

The compound `CSc1nc(=O)n(C(C)C)c(=O)[nH]1` had a melting point of 188 to 190 °C.

On to `CC(=O)SC[C@@H](C)C(=O)N1C(=O)N(C)C[C@H]1C(=O)OC(C)(C)C`, for which the melting point was found to be 104 °C.

The compound `N#CCc1cccc2cnccc12` showed a melting point of 130 to 131 °C.

In turn, `COc1cccc(CCN2C(=O)c3ccccc3C2(O)c2cccnc2)c1` (stereo not given) gave a melting point of 97 °C.

For the compound `O=C1Nc2ccccc2SC1=Cc1ccc(Cl)cc1`, the melting point was 238 to 240 °C.

As for `Cc1oc(CCOc2ccc(CC3SC(=O)NC3=O)cn2)nc1Cc1ccccc1` (stereo not given), the melting point was in the range of 110 to 111 °C.

The compound `CCOC(=O)c1cn(Cc2cccnc2)nc1O` gave a melting point of 148 to 149 °C.

`Cc1ccc(NC(=O)N(C)C)cc1`: the melting point is 154 to 157 °C.

Consider `N#Cc1ccccc1N1CCC2(CC1)OCCO2`, for which the melting point lay within 134 to 135 °C.

For the compound `COC(=O)C(C)Oc1cccc2c1c(C(=O)C(N)=O)c(C)n2Cc1ccccc1` (stereo not given), the melting point is 175 °C.

Compound `CCOC(=O)c1cn(CC)c2nc(-c3ccncc3)c(F)cc2c1=O` showed a melting point of 185 to 186 °C.

Consider `O=C(O)c1nccc(-c2ccccc2)c1C(=O)O`, for which the melting point was in the range of 146 to 148 °C.

`CC(C)OC(=O)c1ccc(OCC(=NO)c2ccc3c(c2)C(C)(C)CCC3(C)C)cc1O`: the melting point stood at 130 °C.

For the compound `CCCCCCCCCCCCCCC(CCCCC(=O)O)CCCCC(=O)O`, the melting point lay in the range of 48 to 50 °C.

In turn, `COc1cc(OC)cc(-c2oc3ncnc(Cl)c3c2-c2ccccc2)c1` yielded a melting point of 138 to 140 °C.
